From US20260035403A1, “NUCLEOSIDE LINE-1 INHIBITORS” (TRANSPOSON THERAPEUTICS, INC., priority 2022, published 2026)

Tested on: human LINE-1
Test: Human LINE-1 retrotransposition assay (HeLa cell-based dual-luciferase reporter)
Details: Human LINE-1 activity inhibition, HeLa cells, reporter plasmid pYX017, Firefly/Renilla, 72 h incubation
Experimental: Representative Compounds of the Disclosure were tested for inhibition of retrotransposition activity of human LINE-1 in HeLa cells according to the following procedure.
HeLa cervical cancer cells were cultivated at 37° C. in a humidified 5% CO2 incubator in Dulbecco's Modified Eagle's Medium (DMEM)—high glucose, with 4500 mg/L glucose, L-glutamine, sodium pyruvate and sodium bicarbonate (Sigma), supplemented with 10% of heat inactivated fetal bovine serum (Thermo Fisher).
Assays were performed using reporter plasmid pYX017 as described (Xie, et al., 2011) with several modifications. The reporter assay was performed in 96-well white optical bottom plates. HeLa cells were seeded in wells 24 h prior to transfection and compound treatment so that cells were approximately 30% confluent on the day of transfection. Different cell plating densities were tested and a density of 2×10^3 cells was determined to be optimal.
Compounds were resuspended in DMSO. Serial dilutions (1:3) were prepared in DMSO. Medium containing different concentrations of the compounds were prepared by adding 2 μl of the compound dilution to 1 ml of the culture medium. The final concentration of DMSO in the medium was 0.2%.
FuGENE® HD transfection reagent (Promega, E2311, Lot 382574 and Lot 397842) was used to transfect the plasmids into the cells. The transfection reagent: DNA mixture was prepared in OpiMEM (Thermo Fisher) according to manufacturer's instructions. Different ratios of transfection reagent to DNA were tested and a ratio of 3:1 was determined to be optimal. Culture medium was removed from the cells and discarded. The transfection reagent: DNA mixture (5 μl) was mixed with the compound containing medium (100 μl/well) and this was added onto the cells of each well. Cells were incubated at 37° C./5% CO2 for different incubation time. A 72 h incubation time was determined to be optimal.
Luciferase reporter activity was quantified with the Dual-Luciferase® Reporter Assay System (Promega) according to manufacturer's instructions for multiwell plates except that cells were lysed directly on the multiwell plate with 30 μl of the passive lysis buffer (PLB) for 20 min at room temperature, with gentle shaking to ensure complete cell lysis.
Firefly and Renilla luciferase signals were measured using a SpectraMax i3× Multi-Mode Microplate Reader. Integration times of 100 ms and 10 ms were used to measure the Firefly and Renilla signals respectively. Relative L1 activity is calculated as Firefly/Renilla*1000 or Firefly/Renilla*10,000. Dose response inhibition data were fit to a four parameter logistic equation using non-linear regression (using Graphpad Prism 8), to determine IC50 values for each inhibitor.

Compound	IC50 (Homo sapiens, HeLa, 72 h)	IC50
C[C@]1(CO)O[C@@H](n2cc(F)c(=O)[nH]c2=O)[C@H](O)[C@@H]1O [compound 189, 1-((2R,3R,4S,5R)-3,4-dihydroxy-5-(hydroxymethyl)-5-methyltetrahydrofuran-2-yl)-5-fluoropyrimidine-2,4(1H,3H)-dione]	9.17 µM	–
C=C[C@]1(CO)O[C@H](n2cnc3c(O)nc(N)nc32)C[C@@H]1O [compound 87, 2-amino-9-((2S,4S,5R)-4-hydroxy-5-(hydroxymethyl)-5-vinyltetrahydrofuran-2-yl)-9H-purin-6-ol]	0.173 µM	–
C[C@]1(CO)O[C@@H](n2ccc(N)nc2=O)[C@H](O)[C@@H]1O [compound 198, 4-amino-1-((2R,3R,4S,5R)-3,4-dihydroxy-5-(hydroxymethyl)-5-methyltetrahydrofuran-2-yl)pyrimidin-2(1H)-one]	> 50 µM	–
C#C[C@@]1(CO)O[C@H](n2ccc(N)nc2=O)C[C@H]1O [Cpd. No. 76, 4-amino-1-((2S,4R,5S)-5-ethynyl-4-hydroxy-5-(hydroxymethyl)tetrahydrofuran-2-yl)pyrimidin-2(1H)-one]	> 6.25 µM	–
C#C[C@@]1(CO)O[C@@H](n2cnc3c(=O)[nH]c(N)nc32)C[C@H]1O [Cpd. No. 79, 2-amino-9-[(2R,4R,5S)-5-ethynyl-4-hydroxy-5-(hydroxymethyl)tetrahydrofuran-2-yl]-1H-purin-6-one]	17 µM	–
C#C[C@]1(CO)C=C[C@@H](n2cc(F)c(N)nc2=O)O1 [Cpd. No. 74, 4-amino-1-[(2S,5S)-5-ethynyl-5-(hydroxymethyl)-2H-furan-2-yl]-5-fluoro-pyrimidin-2-one]	> 50 µM	–
Nc1nc(F)nc2c1ncn2[C@H]1C[C@H](O)C(CO)(CO)O1 [compound 154, ((3S,5R)-5-(6-amino-2-fluoro-9H-purin-9-yl)-3-hydroxytetrahydrofuran-2,2-diyl)dimethanol]	> 40 µM	–
C#C[C@]1(CO)O[C@H](n2ccc(N)nc2=O)C[C@@H]1O [compound 32, 4-amino-1-((2S,4S,5R)-5-ethynyl-4-hydroxy-5-(hydroxymethyl)tetrahydrofuran-2-yl)pyrimidin-2(1H)-one]	0.84 µM	–
C#C[C@@]1(CO)C=C[C@H](n2cc(OC)c(=O)[nH]c2=O)O1 [compound 36, 1-((2R,5R)-5-ethynyl-5-(hydroxymethyl)-2,5-dihydrofuran-2-yl)-5-methoxypyrimidine-2,4(1H,3H)-dione]	> 12.5 µM	–
C#C[C@@]1(CO)C=C[C@H](n2ccc(=O)[nH]c2=O)O1 [compound 30, 1-((2R,5R)-5-ethynyl-5-(hydroxymethyl)-2,5-dihydrofuran-2-yl)pyrimidine-2,4(1H,3H)-dione]	16 µM	–
CC[C@]1(CO)O[C@@H](n2cnc3c(N)nc(F)nc32)[C@@H](F)[C@@H]1O [compound 191, (2R,3R,4S,5R)-5-(6-amino-2-fluoro-9H-purin-9-yl)-2-ethyl-4-fluoro-2-(hydroxymethyl)tetrahydrofuran-3-ol]	–	56 µM
C#C[C@]1(CO)O[C@@H](n2ccc(N)nc2=O)C(F)(F)[C@@H]1O [compound 200, 4-amino-1-((2R,4R,5R)-5-ethynyl-3,3-difluoro-4-hydroxy-5-(hydroxymethyl)tetrahydrofuran-2-yl)pyrimidin-2(1H)-one]	414 µM	–
C#C[C@@]1(CO)O[C@@H](n2ccc(N)nc2=O)C[C@H]1O [Cpd. No. 77, 4-amino-1-((2R,4R,5S)-5-ethynyl-4-hydroxy-5-(hydroxymethyl)tetrahydrofuran-2-yl)pyrimidin-2(1H)-one]	> 6.25 µM	–
C=C[C@]1(CO)O[C@@H](n2cnc3c(NC4CC4)nc(N)nc32)C[C@@H]1O [Cpd. No. 4, (2R,3S,5R)-5-(2-amino-6-(cyclopropylamino)-9H-purin-9-yl)-2-(hydroxymethyl)-2-vinyltetrahydrofuran-3-ol]	0.401 µM	–

More lines, main results first:

IC50 (Homo sapiens, HeLa, 72 h)	Compound	IC50
0.052 µM	C#C[C@]1(CO)O[C@H](n2cnc3c(=O)[nH]c(N)nc32)C[C@@H]1O [compound 49, 2-amino-9-((2S,48,5R)-5-ethynyl-4-hydroxy-5-(hydroxymethyl)tetrahydrofuran-2-yl)-1,9-dihydro-6H-purin-6-one]	–
370 µM	C#C[C@]1(CO)O[C@@H](n2cnc3c(N)nc(F)nc32)[C@H](F)[C@@H]1O [compound 13, (2R,3R,4R,5R)-5-(6-amino-2-fluoro-9H-purin-9-yl)-2-ethynyl-4-fluoro-2-(hydroxymethyl)tetrahydrofuran-3-ol]	–
> 50 µM	C=C[C@]1(CO)O[C@@H](n2cc(OC)c(=O)[nH]c2=O)C[C@@H]1O [Cpd. No. 6, 1-((2R,4S,5R)-4-hydroxy-5-(hydroxymethyl)-5-vinyltetrahydrofuran-2-yl)-5-methoxypyrimidine-2,4(1H,3H)-dione]	–
0.429 µM	C#C[C@]1(CO)O[C@H](n2cnc3c(NC4CC4)nc(N)nc32)C[C@@H]1O [compound 83, (2R,3S,5S)-5-(2-amino-6-(cyclopropylamino)-9H-purin-9-yl)-2-ethynyl-2-(hydroxymethyl)tetrahydrofuran-3-ol]	–
0.658 µM	C=C[C@]1(CO)O[C@@H](n2cc(Br)c(N)nc2=O)C[C@@H]1O [Cpd. No. 90, 4-amino-5-bromo-1-((2R,4S,5R)-4-hydroxy-5-(hydroxymethyl)-5-vinyltetrahydrofuran-2-yl)pyrimidin-2(1H)-one]	–
> 12.5 µM	C#C[C@@]1(CO)C=C[C@H](n2cc(C#N)c(=O)[nH]c2=O)O1 [compound 33, 1-((2R,5R)-5-ethynyl-5-(hydroxymethyl)-2,5-dihydrofuran-2-yl)-2,4-dioxo-1,2,3,4-tetrahydropyrimidine-5-carbonitrile]	–
> 50 µM	C#C[C@]1(CO)O[C@@H](n2nc(C)c3c(N)nc(F)nc32)C[C@@H]1O [Cpd. No. 75, (2R,3S,5R)-5-(4-amino-6-fluoro-3-methyl-1H-pyrazolo[3,4-d]pyrimidin-1-yl)-2-ethynyl-2-(hydroxymethyl)tetrahydrofuran-3-ol]	–
3.75 µM	CC[C@]1(CO)O[C@@H](n2cc(F)c(=O)[nH]c2=O)C[C@@H]1O [Cpd. No. 18, 1-((2R,4S,5R)-5-ethyl-4-hydroxy-5-(hydroxymethyl)tetrahydrofuran-2-yl)-5-fluoropyrimidine-2,4(1H,3H)-dione]	–
> 50 µM	COC[C@@]1(CO)C=C[C@H](n2cc(C)c(=O)[nH]c2=O)O1 [compound 48, 1-((2R,5S)-5-(hydroxymethyl)-5-(methoxymethyl)-2,5-dihydrofuran-2-yl)-5-methylpyrimidine-2,4(1H,3H)-dione]	–
> 50 µM	C#C[C@]1(CO)O[C@H](n2cc(Br)c(=O)[nH]c2=O)C[C@@H]1O [compound 53, 5-bromo-1-((2S,4S,SR)-5-ethynyl-4-hydroxy-5-(hydroxymethyl)tetrahydrofuran-2-yl)pyrimidine-2,4(1H,3H)-dione]	–
> 50 µM	C=C[C@]1(CO)O[C@@H](n2cc(C)c(=O)[nH]c2=O)C[C@H]1O [compound 25, 1-((2R,4R,5R)-4-hydroxy-5-(hydroxymethyl)-5-vinyltetrahydrofuran-2-yl)-5-methylpyrimidine-2,4(1H,3H)-dione]	–
2.35 µM	C=C[C@]1(CO)O[C@@H](n2cc(F)c(=O)[nH]c2=O)C[C@@H]1O [Cpd. No. 17, 5-fluoro-1-((2R,4S,5R)-4-hydroxy-5-(hydroxymethyl)-5-vinyltetrahydrofuran-2-yl)pyrimidine-2,4(1H,3H)-dione]	–
0.721 µM	CC[C@]1(CO)OC(n2cc(OC)c(=O)[nH]c2=O)C[C@@H]1O (stereo partly drawn) [Cpd. No. 68, 1-((4S,5R)-5-ethyl-4-hydroxy-5-(hydroxymethyl)tetrahydrofuran-2-yl)-5-methoxypyrimidine-2,4(1H,3H)-dione]	–
0.067 µM	[2H]C([2H])([2H])c1cn([C@H]2C=C[C@@](C#C)(CO)O2)c(=O)[nH]c1=O [compound 37, 1-((2R,5R)-5-ethynyl-5-(hydroxymethyl)-2,5-dihydrofuran-2-yl)-5-(methyl-d3)pyrimidine-2,4(1H,3H)-dione]	–
0.946 µM	CC[C@]1(CO)O[C@@H](n2cnc3c(NC4CC4)nc(N)nc32)C[C@@H]1O [Cpd. No. 97, (2R,3S,5R)-5-(2-amino-6-(cyclopropylamino)-9H-purin-9-yl)-2-ethyl-2-(hydroxymethyl)tetrahydrofuran-3-ol]	–
0.009 µM	C=C[C@]1(CO)O[C@@H](n2cc(F)c(N)nc2=O)C[C@@H]1O [Cpd. No. 8, 4-amino-5-fluoro-1-((2R,4S,5R)-4-hydroxy-5-(hydroxymethyl)-5-vinyltetrahydrofuran-2-yl)pyrimidin-2(1H)-one]	–
